Measured values as given in ChEMBL document CHEMBL4219245, “Development of piperazine-based hydroxamic acid inhibitors against falcilysin, an essential malarial protease” (Bioorg Med Chem Lett, 2018).

Assays:
Falcilysin = biological target: T1, Falcilysin (Plasmodium falciparum (isolate 3D7), UniProt Q76NL8); experiment: Inhibition of Plasmodium falciparum 3D7 FLN (55 to 1193 residues) expressed in Escherichia coli BL21 using Dabcyl-HKRHSFRMRG-EDANS as substrate preincubated for 5 mins followed by substrate addition measured for 10 mins by fluorescence assay
T1 sequence (Q76NL8 whole entry): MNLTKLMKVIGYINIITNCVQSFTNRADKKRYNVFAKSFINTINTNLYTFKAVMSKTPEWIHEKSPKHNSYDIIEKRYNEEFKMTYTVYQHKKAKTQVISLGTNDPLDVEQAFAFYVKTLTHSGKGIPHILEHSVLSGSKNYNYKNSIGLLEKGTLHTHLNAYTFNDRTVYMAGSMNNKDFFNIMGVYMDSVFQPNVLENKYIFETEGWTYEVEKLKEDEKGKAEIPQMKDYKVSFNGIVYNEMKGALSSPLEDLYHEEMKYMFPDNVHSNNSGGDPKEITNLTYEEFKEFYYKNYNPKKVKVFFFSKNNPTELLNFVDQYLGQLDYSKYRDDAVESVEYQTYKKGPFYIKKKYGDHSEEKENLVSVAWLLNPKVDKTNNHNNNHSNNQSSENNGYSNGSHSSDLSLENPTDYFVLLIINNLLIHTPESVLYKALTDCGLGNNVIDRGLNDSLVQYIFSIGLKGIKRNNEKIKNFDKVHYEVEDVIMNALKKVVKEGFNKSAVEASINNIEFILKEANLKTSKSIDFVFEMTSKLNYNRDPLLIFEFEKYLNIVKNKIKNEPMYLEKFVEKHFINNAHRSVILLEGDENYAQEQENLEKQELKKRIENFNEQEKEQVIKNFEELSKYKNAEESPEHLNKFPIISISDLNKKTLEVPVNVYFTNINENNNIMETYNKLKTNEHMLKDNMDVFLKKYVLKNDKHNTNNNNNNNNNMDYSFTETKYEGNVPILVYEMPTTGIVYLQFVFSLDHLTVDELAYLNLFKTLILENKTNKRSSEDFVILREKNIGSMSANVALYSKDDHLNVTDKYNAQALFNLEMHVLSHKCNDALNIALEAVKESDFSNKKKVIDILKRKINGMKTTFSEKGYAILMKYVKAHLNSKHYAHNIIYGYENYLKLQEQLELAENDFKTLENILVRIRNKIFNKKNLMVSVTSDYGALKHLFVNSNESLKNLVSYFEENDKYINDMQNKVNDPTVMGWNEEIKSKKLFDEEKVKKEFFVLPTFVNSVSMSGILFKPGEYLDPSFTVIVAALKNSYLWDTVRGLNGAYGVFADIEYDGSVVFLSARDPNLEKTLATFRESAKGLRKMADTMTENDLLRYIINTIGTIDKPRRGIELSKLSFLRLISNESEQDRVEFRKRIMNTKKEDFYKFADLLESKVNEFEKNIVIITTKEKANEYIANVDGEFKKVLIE

Plasmodium falciparum = experiment: Parasiticidal activity against ring stage Plasmodium falciparum 3D7 infected in human RBC after 70 to 80 hrs by acridine orange staining-based assay; type: functional, organism-based; conditions: 3D7, Erythrocyte

Row | SMILES | IC50 (Falcilysin) [µM] | IC50 (Plasmodium falciparum) [µM]
1 | COc1ccc(S(=O)(=O)N2CCN(C(=O)c3ccc(-c4ccccc4)cc3)CC2C(=O)NO)cc1 (configuration not stated) | 10 | 5
2 | COc1ccc(S(=O)(=O)N2CCN(C(=O)c3ccccc3)CC2C(=O)NO)cc1 (configuration not stated) | > 50 | > 10
3 | COc1ccc(S(=O)(=O)N2CCN(C(=O)c3ccc(Br)cc3)CC2C(=O)NO)cc1 (configuration not stated) | 14 | > 10
4 | O=C(NO)C1CN(C(=O)c2ccccc2)CCN1S(=O)(=O)c1ccc(Br)cc1 (configuration not stated) | 35 | > 10
5 | O=C(NO)C1CN(C(=O)c2ccc(-c3ccccc3)cc2)CCN1S(=O)(=O)c1ccc(Br)cc1 (configuration not stated) | 1.4 | 1.4
6 | O=C(NO)C1CN(C(=O)c2ccc(F)cc2)CCN1S(=O)(=O)c1ccc(Br)cc1 (configuration not stated) | 16 | > 10
7 | CCCCN1CCN(S(=O)(=O)c2ccccc2)C(C(=O)NO)C1 (configuration not stated) | > 50 | > 10
8 | O=C(NO)C1CN(C(=O)c2ccc(F)cc2)CCN1S(=O)(=O)c1ccccc1 (configuration not stated) | > 50 | > 10
9 | O=C(NO)C1CN(C(=O)c2cccc(F)c2)CCN1S(=O)(=O)c1ccccc1 (configuration not stated) | > 50 | > 10
10 | O=C(NO)C1CN(CCCO)CCN1S(=O)(=O)c1ccccc1 (configuration not stated) | > 50 | > 10
11 | O=C(NO)C1CN(C(=O)c2ccc(Cl)c(Cl)c2)CCN1S(=O)(=O)c1ccccc1 (configuration not stated) | 5 | > 10
12 | O=C(NO)C1CN(C(=O)c2ccccc2)CCN1S(=O)(=O)c1ccccc1 (configuration not stated) | 40 | > 10
13 | O=C(NO)C1CN(C(=O)c2ccc(-c3ccccc3)cc2)CCN1S(=O)(=O)c1ccccc1 (configuration not stated) | 8 | > 10
14 | O=C(NO)C1CN(C(=O)c2ccccc2Br)CCN1S(=O)(=O)c1ccccc1 (configuration not stated) | 7 | > 10
15 | COc1ccc(S(=O)(=O)N2CCN(C(=O)c3cccc(Br)c3)CC2C(=O)NO)cc1 (configuration not stated) | 10 | > 10
16 | O=C(NO)C1CN(C(=O)c2ccc(Br)cc2)CCN1S(=O)(=O)c1ccccc1 (configuration not stated) | 13 | > 10
17 | CCC(=O)N1CCN(S(=O)(=O)c2ccc(Br)cc2)C(C(=O)NO)C1 (configuration not stated) | > 50 | > 10
18 | COc1ccc(S(=O)(=O)N2CCN(C(=O)c3ccc(Cl)c(Cl)c3)CC2C(=O)NO)cc1 (configuration not stated) | 6 | > 10
19 | COc1ccc(S(=O)(=O)N2CCN(C(=O)c3ccccc3Br)CC2C(=O)NO)cc1 (configuration not stated) | 8 | > 10
20 | COc1ccc(S(=O)(=O)N2CCN(S(=O)(=O)c3ccccc3)CC2C(=O)NO)cc1 (configuration not stated) | > 50 | > 10
21 | O=C(NO)C1CN(C(=O)c2cccc(F)c2)CCN1S(=O)(=O)c1ccc(Br)cc1 (configuration not stated) | 31 | > 10
